Results on 21 compounds are retold here after US11066369B2, “N-(pyridin-2-yl)pyridine-sulfonamide derivatives and their use in the treatment of disease” (Novartis AG, priority 2016, dated 2021).

SMILES strings stand for the structures. Where a name gives a salt, the structure may show the parent alone.

The target in test [1] is T1, horseradish peroxidase (HRP) tagged delF508-CFTR (Homo sapiens, UniProt P13569, DEL508-508).
T1 construct: expressed in transfected cells
Kind of test: Measurement of delF508-CFTR-HRP surface expression in CFBE41o- cells.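 As to DelF508-CFTR-HRP Amax %: percent efficacy relative to reference corrector lumacaftor.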 In kind it is cell-based. The conditions noted are these: delF508-CFTR-HRP surface expression, CFBE41o- cells; for Emax: read-out: DelF508-CFTR-HRP Amax %; for EC50: read-out: DelF508-CFTR-HRP EC50. In a few lines:
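Surface-trafficked delF508-CFTR detected via extracellular HRP tag, read as luminescence from a membrane-impermeant substrate in CFBE41o- cells. Cells pre-induced 48h with 500 ng/mL doxycycline, then exposed 24h at 37° C to a 10-point, 3-fold dilution series from 10 μM (DMSO ≤0.5%). Triplicate dose-responses fitted logistically for EC50 after per-plate normalization; fold change versus reference compound.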

Test [2] addresses T2, delF508-CFTR (Homo sapiens, UniProt P13569, DEL508-508).
T2 construct: functional activity of the CFTR channel (Chloride ion transport) in patient derived primary human bronchial epithelial cells; host or cells: patient-derived primary human bronchial epithelial cells (delF508-CFTR)
As to the kind of experiment: Measurement of delF508-CFTR functional activity in primary human bronchial epithelial cells (HBECs) using Multi-Transepithelial Clamp Circuit (MTECC-24) assay. In kind it is cell-based. The settings on record: primary CF HBECs; for MTECC24 CFHBEC- Amax %: test compound added 24h before assay plus potentiator, relative to reference combination (2 μM corrector + 0.5 μM potentiator); for EC50: test compound added 24h before assay, in the presence of potentiator, mean of at least two replicates, read-out: MTECC24 CFHBEC- EC50. In a few lines: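 Compound tested as 10-point, 1-in-3 concentration response (0.1% or 0.2% DMSO), 24 h basolateral pre-incubation, then re-added to both sides. MTECC-24 measured Ieq in ALI-differentiated primary delF508 bronchial cells after amiloride, forskolin activation, potentiator and INH-172 block; data normalized to DMSO baseline, EC50 fitted.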

T1 sequence (P13569 with tags, fused parts or gaps DEL508-508): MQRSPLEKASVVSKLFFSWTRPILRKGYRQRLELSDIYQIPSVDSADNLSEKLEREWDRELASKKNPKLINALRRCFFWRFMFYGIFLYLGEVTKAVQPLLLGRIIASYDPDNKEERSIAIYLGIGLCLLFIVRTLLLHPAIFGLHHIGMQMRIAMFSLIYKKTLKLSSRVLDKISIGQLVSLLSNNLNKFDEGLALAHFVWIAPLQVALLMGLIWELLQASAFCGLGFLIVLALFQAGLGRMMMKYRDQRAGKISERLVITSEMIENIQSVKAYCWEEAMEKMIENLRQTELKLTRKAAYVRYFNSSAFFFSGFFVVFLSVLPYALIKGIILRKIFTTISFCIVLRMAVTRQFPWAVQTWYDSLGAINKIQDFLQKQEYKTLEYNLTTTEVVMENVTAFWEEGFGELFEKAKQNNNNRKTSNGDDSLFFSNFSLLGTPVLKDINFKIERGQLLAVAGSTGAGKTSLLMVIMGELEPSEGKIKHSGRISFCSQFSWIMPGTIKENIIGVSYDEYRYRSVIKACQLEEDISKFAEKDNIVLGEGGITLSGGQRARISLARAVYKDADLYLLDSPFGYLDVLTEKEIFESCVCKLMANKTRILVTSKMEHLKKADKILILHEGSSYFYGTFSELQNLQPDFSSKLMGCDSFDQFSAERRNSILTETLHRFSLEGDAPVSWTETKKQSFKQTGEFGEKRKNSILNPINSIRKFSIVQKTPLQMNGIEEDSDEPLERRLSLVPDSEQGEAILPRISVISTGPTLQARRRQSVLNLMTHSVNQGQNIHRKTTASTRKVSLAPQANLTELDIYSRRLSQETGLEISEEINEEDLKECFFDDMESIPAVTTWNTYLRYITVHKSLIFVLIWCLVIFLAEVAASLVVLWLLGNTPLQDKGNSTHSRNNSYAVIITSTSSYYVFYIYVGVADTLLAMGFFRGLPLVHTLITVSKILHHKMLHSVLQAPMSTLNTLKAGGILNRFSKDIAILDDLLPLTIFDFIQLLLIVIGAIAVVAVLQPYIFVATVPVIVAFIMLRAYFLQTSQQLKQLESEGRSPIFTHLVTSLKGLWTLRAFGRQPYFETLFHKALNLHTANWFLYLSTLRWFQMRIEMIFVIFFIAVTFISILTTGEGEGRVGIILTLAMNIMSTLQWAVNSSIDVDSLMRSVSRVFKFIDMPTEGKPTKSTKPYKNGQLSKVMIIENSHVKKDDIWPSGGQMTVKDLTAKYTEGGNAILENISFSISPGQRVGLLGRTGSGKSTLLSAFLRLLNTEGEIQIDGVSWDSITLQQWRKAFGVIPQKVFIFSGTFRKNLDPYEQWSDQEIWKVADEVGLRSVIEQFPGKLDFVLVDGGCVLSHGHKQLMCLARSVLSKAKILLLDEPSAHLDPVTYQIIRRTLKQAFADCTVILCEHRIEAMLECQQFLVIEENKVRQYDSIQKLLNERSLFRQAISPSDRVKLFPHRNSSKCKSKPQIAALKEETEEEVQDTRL
T2 sequence (P13569 with tags, fused parts or gaps DEL508-508): as above

`Cc1ccccc1-c1nc(NS(=O)(=O)c2cccc(N[C@@H]3CCOC[C@@H]3O)n2)ccc1C(F)(F)F` (single isomer, unassigned) [Example 276]: in test [1], the Emax was found to be 523% and the EC50 (in general, the concentration at which the effect is half-maximal) is 3200 nM. For the same compound, in test [2], the “MTECC24 CFHBEC- Amax %” value is on record as 84.7% and the EC50 was determined as 18.5 nM.
Consider `Cc1cccc(C)c1-c1nc(NS(=O)(=O)c2cccc(N3CCC(C)(C(=O)O)CC3)n2)ccc1C(F)(F)F` [Example 265, 1-(6-{[6-(2,6-dimethylphenyl)-5-(trifluoromethyl)pyridin-2-yl]sulfamoyl}pyridin-2-yl)-4-methylpiperidine-4-carboxylic Acid], for which, in test [1], the Emax was 879% and the EC50 was determined as 1830 nM. In addition, in test [2], the “MTECC24 CFHBEC- Amax %” value was found to be 53.1% and the EC50 was 13.4 nM.
In the case of `CC1(C(=O)O)CCN(c2cccc(S(=O)(=O)Nc3ccc(Cl)c(-c4cccc(F)c4Cl)n3)n2)CC1` [Example 245, 1-(6-(N-(5-chloro-6-(2-chloro-3-fluorophenyl)pyridin-2-yl)sulfamoyl)pyridin-2-yl)-4-methylpiperidine-4-carboxylic Acid], in test [1], the Emax worked out at 246% and the EC50 was determined as 3440 nM. In test [2], the “MTECC24 CFHBEC- Amax %” value was found to be 48.0% and the EC50 was 43.1 nM.
The corresponding values for `Nc1cccc(S(=O)(=O)Nc2ccc(Cl)c(-c3cc(C(F)(F)F)ccc3Cl)n2)n1` [Example 43, 6-amino-N-(5-chloro-6-(2-chloro-5-(trifluoromethyl)phenyl)pyridin-2-yl)pyridine-2-sulfonamide] are 361%, 2120 nM, 54.2% and 63.3 nM.
Turning to `Cc1ccccc1-c1nc(NS(=O)(=O)c2cccc(N3C[C@H](O)[C@@H](N4CCCC4)C3)n2)ccc1C(F)(F)F` [Example 118, 6-((3′S,4'S)-4′-hydroxy-[1,3′-bipyrrolidin]-1′-yl)-N-(6-(o-tolyl)-5-(trifluoromethyl)pyridin-2-yl)pyridine-2-sulfonamide], in test [1], the Emax was 492% and the EC50 came to 2600 nM. Besides, in test [2], the “MTECC24 CFHBEC- Amax %” value is 78.5% and the EC50 turned out to be 11.7 nM.
Take `CC1(O)CN(c2cccc(S(=O)(=O)Nc3ccc(Cl)c(-c4ccc(F)cc4Cl)n3)n2)C1` [Example 213, N-(5-chloro-6-(2-chloro-4-fluorophenyl)pyridin-2-yl)-6-(3-hydroxy-3-methylazetidin-1-yl)pyridine-2-sulfonamide]: in test [1], the Emax came out at 224% and the EC50 was 2490 nM. In test [2], the “MTECC24 CFHBEC- Amax %” value stood at 78.0% and the EC50 was found to be 47.8 nM.
In the case of `Cc1ccc(F)cc1-c1nc(NS(=O)(=O)c2cccc(N3CCC[C@@H](C(=O)O)C3)n2)ccc1C(F)(F)F` [Example 357, (3R)-1-(6-{[6-(5-fluoro-2-methylphenyl)-5-(trifluoromethyl)pyridin-2-yl]sulfamoyl}pyridin-2-yl)piperidine-3-carboxylic Acid], the EC50 in test [1] was 2060 nM; in test [2] it was 38.5 nM. In test [2], the “MTECC24 CFHBEC- Amax %” value is 70.6%.
Take `Cc1cccc(Cl)c1-c1nc(NS(=O)(=O)c2cccc(N)n2)ccc1Cl` [Example 13, 6-amino-N-(5-chloro-6-(2-chloro-6-methylphenyl)pyridin-2-yl)pyridine-2-sulfonamide]: in test [1], the Emax stood at 536% and the EC50 worked out at 1310 nM. In test [2], the “MTECC24 CFHBEC- Amax %” value is on record as 100.1% and the EC50 is 24 nM.
Consider `Cc1ccc(F)cc1-c1nc(NS(=O)(=O)c2cccc(N3CCC(C)(C(=O)O)CC3)n2)ccc1C(F)(F)F` [Example 262, 1-(6-{[6-(5-fluoro-2-methylphenyl)-5-(trifluoromethyl)pyridin-2-yl]sulfamoyl}pyridin-2-yl)-4-methylpiperidine-4-carboxylic Acid], for which, in test [1], the Emax turned out to be 628% and the EC50 is 2290 nM. For the same compound, in test [2], the “MTECC24 CFHBEC- Amax %” value came out at 81.2% and the EC50 is 14 nM.
The matching figures for `Cc1ccccc1-c1nc(NS(=O)(=O)c2cccc(N3CCC[C@H](C(=O)O)C3)n2)ccc1C(F)(F)F` [Example 333, (3S)-1-(6-{[6-(2-methylphenyl)-5-(trifluoromethyl)pyridin-2-yl]sulfamoyl}pyridin-2-yl)piperidine-3-carboxylic Acid]: 428%, 1950 nM, 47.6% and 7.9 nM.
With `CCCC1(C(=O)O)CCN(c2cccc(S(=O)(=O)Nc3ccc(C(F)(F)F)c(-c4ccccc4CC)n3)n2)CC1` [Example 351, 1-(6-{[6-(2-ethylphenyl)-5-(trifluoromethyl)pyridin-2-yl]sulfamoyl}pyridin-2-yl)-4-propylpiperidine-4-carboxylic Acid], in test [1], the Emax was 492% and the EC50 came to 870 nM. Further, in test [2], the “MTECC24 CFHBEC- Amax %” value stood at 99.7% and the EC50 turned out to be 107 nM.
As to `COc1ccc(Cl)c(-c2nc(NS(=O)(=O)c3cccc(N4CCNCC4)n3)ccc2C(F)(F)F)c1` [Example 154, N-(6-(2-chloro-5-methoxyphenyl)-5-(trifluoromethyl)pyridin-2-yl)-6-(piperazin-1-yl)pyridine-2-sulfonamide hydrochloride], in test [1], the Emax was found to be 395% and the EC50 was determined as 3460 nM. In test [2], the “MTECC24 CFHBEC- Amax %” value was 69.5% and the EC50 was 239 nM.
As to `Cc1ccccc1-c1nc(NS(=O)(=O)c2cccc(N[C@H]3COCC[C@H]3O)n2)ccc1C(F)(F)F` (single isomer, unassigned) [Example 282], in test [1], the concentration giving a half-maximal response (EC50) turned out to be 1880 nM. Moreover, in test [2], the “MTECC24 CFHBEC- Amax %” value turned out to be 69.6% and the EC50 was 2.4 nM.
For the compound `CCOC(=O)C1(C)CCN(c2cccc(S(=O)(=O)Nc3ccc(Cl)c(-c4ccccc4C)n3)n2)CC1` [Example 254, ethyl 1-(6-(N-(5-chloro-6-(o-tolyl)pyridin-2-yl)sulfamoyl)pyridin-2-yl)-4-methylpiperidine-4-carboxylate], in test [1], the Emax stood at 620% and the EC50 stood at 2590 nM. In test [2], the “MTECC24 CFHBEC- Amax %” value is 62.2% and the EC50 was 3.8 nM.
`O=S(=O)(Nc1ccc(Cl)c(-c2ccc(F)cc2Cl)n1)c1cccc(N2CC(O)C2)n1` [Example 214, N-(5-chloro-6-(2-chloro-4-fluorophenyl)pyridin-2-yl)-6-(3-hydroxyazetidin-1-yl)pyridine-2-sulfonamide]: in test [1], the Emax was found to be 256% and the concentration for a half-maximal effect (EC50) is 2030 nM. In addition, in test [2], the “MTECC24 CFHBEC- Amax %” value is listed as 71.1% and the EC50 was 51.9 nM.
As to `CO[C@H]1CCNC[C@H]1Nc1cccc(S(=O)(=O)Nc2ccc(C(F)(F)F)c(-c3ccccc3C)n2)n1` [Example 106, 6-(((3R,4S)-4-methoxypiperidin-3-yl)amino)-N-(6-(o-tolyl)-5-(trifluoromethyl)pyridin-2-yl)pyridine-2-sulfonamide Hydrochloride], in test [1], the Emax is 912% and the EC50 is 2580 nM. In addition, in test [2], the “MTECC24 CFHBEC- Amax %” value worked out at 106.4% and the EC50 turned out to be 79.5 nM.
The matching figures for `Cc1ccc(F)cc1-c1nc(NS(=O)(=O)c2cccc(N[C@@H]3CCOC[C@@H]3O)n2)ccc1Cl` [Example 272, N-[5-chloro-6-(5-fluoro-2-methylphenyl)pyridin-2-yl]-6-{[(3R,4R)-3-hydroxyoxan-4-yl]amino}pyridine-2-sulfonamide]: 806%, 2310 nM, 66.4% and 10.5 nM.
The matching figures for `Cc1ccc(C#N)cc1-c1nc(NS(=O)(=O)c2cccc(N3CCNCC3)n2)ccc1Cl` [Example 312, N-(5-chloro-6-(5-cyano-2-methylphenyl)pyridin-2-yl)-6-(piperazin-1-yl)pyridine-2-sulfonamide]: 167%, 3970 nM, 49.8% and 458 nM.
For `Cc1ccc(F)cc1-c1nc(NS(=O)(=O)c2ccc(N)nc2)ccc1Cl` [Example 44, 6-amino-N-(5-chloro-6-(5-fluoro-2-methylphenyl)pyridin-2-yl)pyridine-3-sulfonamide], in test [1], the Emax was 346% and the EC50 stood at 1770 nM. Further, in test [2], the “MTECC24 CFHBEC- Amax %” value is recorded as 61.6% and the EC50 amounted to 46 nM.
The matching figures for `Cc1cccc(C)c1-c1nc(NS(=O)(=O)c2cccc(N3CCNC(=O)C3)n2)ccc1Cl` [Example 131, N-(5-chloro-6-(2,6-dimethylphenyl)pyridin-2-yl)-6-(3-oxopiperazin-1-yl)pyridine-2-sulfonamide]: 729%, 2140 nM, 78.4% and 25 nM.
With `Cc1cccc(C)c1-c1cc(C(F)(F)F)cc(NS(=O)(=O)c2cccc(N)n2)n1` [Example 5, 6-amino-N-(6-(2,6-dimethylphenyl)-4-(trifluoromethyl)pyridin-2-yl)pyridine-2-sulfonamide], in test [1], the Emax stood at 629% and the EC50 came to 1150 nM. In test [2], the “MTECC24 CFHBEC- Amax %” value is reported as 97.56% and the EC50 is 3 nM.
